Article PMC9927415, “Tyrosine Kinase Inhibitors Display Potent Activity against Cryptosporidium parvum” (Microbiology Spectrum, 2022)

Columns and labels:
Experiment in all cases: KINOMEscan competitive binding, whole panel
panel of 203 kinases [1] = target: T1, panel of 203 kinases (Homo sapiens, UniProt P54753); conditions: 10 µM, n=1; kinase EPHB3; read-out: Percent inhibition EPHB3
T1 construct: purchased DiscoverX (KINOMEscan)
T1 sequence (P54753 34-998): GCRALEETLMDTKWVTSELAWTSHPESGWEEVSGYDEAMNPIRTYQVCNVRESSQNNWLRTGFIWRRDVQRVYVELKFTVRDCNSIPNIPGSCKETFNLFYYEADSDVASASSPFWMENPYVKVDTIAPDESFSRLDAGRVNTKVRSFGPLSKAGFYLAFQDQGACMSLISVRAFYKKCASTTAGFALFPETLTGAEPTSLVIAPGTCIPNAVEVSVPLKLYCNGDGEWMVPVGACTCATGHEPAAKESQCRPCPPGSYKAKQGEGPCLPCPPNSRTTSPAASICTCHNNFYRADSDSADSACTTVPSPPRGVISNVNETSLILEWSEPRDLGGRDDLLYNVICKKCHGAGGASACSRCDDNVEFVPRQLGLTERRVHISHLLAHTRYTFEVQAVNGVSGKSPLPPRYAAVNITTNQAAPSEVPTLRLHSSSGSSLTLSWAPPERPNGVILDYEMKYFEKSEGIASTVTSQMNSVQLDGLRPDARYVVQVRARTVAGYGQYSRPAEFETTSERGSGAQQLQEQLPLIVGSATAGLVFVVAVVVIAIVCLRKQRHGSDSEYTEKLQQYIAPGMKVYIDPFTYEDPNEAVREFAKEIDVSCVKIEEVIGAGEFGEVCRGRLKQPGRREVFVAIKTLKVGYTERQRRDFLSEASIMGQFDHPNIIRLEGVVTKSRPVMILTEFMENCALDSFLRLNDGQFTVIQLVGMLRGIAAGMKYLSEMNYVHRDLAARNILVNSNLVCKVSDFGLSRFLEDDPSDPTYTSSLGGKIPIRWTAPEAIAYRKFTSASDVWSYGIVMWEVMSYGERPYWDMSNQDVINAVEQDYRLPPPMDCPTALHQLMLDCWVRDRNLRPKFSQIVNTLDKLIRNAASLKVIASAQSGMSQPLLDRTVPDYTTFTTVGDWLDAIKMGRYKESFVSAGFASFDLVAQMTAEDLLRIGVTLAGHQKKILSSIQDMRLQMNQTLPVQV
How it was run: (§1)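 Percentage inhibition reflects loss of kinase binding to solid-phase ATP-site probe ligands in the presence of compound. Kinases carry a T7 bacteriophage fusion.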

panel of 203 kinases [2] = target: T2, panel of 203 kinases (Homo sapiens, UniProt P08581); conditions: 10 µM, n=1; kinase MET; read-out: Percent inhibition MET
T2 construct: purchased DiscoverX (KINOMEscan)
How it was run: as §1

panel of 203 kinases [3] = target: T3, panel of 203 kinases (Homo sapiens, UniProt Q8NI60); conditions: 10 µM, n=1; kinase ADCK3; read-out: Percent inhibition ADCK3
T3 construct: purchased DiscoverX (KINOMEscan)
How it was run: as §1

panel of 203 kinases [4] = target: T4, panel of 203 kinases (Homo sapiens, UniProt O95819); conditions: 10 µM, n=1; kinase MAP4K4; read-out: Percent inhibition MAP4K4
T4 construct: purchased DiscoverX (KINOMEscan)
How it was run: as §1

panel of 203 kinases [5] = target: T5, panel of 203 kinases (Homo sapiens, UniProt Q8TDX7); conditions: 10 µM, n=1; kinase NEK7; read-out: Percent inhibition NEK7
T5 construct: purchased DiscoverX (KINOMEscan)
How it was run: as §1

panel of 203 kinases [6] = target: T6, panel of 203 kinases (Homo sapiens, UniProt P22607); conditions: 10 µM, n=1; kinase FGFR3; read-out: Percent inhibition FGFR3
T6 construct: purchased DiscoverX (KINOMEscan)
How it was run: as §1

panel of 203 kinases [7] = target: T7, panel of 203 kinases (Homo sapiens, UniProt P29322); conditions: 10 µM, n=1; kinase EPHA8; read-out: Percent inhibition EPHA8
T7 construct: purchased DiscoverX (KINOMEscan)
T7 sequence (P29322 28-1005): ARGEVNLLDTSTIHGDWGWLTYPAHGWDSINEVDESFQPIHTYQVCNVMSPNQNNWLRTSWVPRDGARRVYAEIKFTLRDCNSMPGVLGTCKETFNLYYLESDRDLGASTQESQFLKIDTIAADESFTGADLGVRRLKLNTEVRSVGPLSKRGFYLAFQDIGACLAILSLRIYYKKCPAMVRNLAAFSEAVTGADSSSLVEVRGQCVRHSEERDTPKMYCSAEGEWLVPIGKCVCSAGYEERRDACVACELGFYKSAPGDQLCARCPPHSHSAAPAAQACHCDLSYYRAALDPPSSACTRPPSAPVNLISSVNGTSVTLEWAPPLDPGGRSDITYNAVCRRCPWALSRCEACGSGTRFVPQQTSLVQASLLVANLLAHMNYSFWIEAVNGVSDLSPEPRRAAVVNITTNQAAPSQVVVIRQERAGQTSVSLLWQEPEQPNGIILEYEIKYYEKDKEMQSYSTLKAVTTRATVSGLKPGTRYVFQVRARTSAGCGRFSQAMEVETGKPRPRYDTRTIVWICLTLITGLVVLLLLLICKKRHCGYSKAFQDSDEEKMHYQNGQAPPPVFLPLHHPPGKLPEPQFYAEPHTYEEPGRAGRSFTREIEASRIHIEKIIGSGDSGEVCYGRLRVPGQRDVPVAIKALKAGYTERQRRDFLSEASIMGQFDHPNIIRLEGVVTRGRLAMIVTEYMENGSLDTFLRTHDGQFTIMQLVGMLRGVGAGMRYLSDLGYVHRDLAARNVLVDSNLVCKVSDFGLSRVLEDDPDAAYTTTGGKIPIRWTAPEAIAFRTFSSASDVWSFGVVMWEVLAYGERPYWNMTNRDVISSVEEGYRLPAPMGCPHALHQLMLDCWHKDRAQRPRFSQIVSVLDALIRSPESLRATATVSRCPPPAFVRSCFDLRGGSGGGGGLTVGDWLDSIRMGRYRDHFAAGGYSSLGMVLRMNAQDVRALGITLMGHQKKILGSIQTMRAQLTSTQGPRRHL
How it was run: as §1

panel of 203 kinases [8] = target: T8, panel of 203 kinases (Homo sapiens, UniProt O94804); conditions: 10 µM, n=1; kinase LOK; read-out: Percent inhibition LOK
T8 construct: purchased DiscoverX (KINOMEscan)
How it was run: as §1

T3 sequence (Q8NI60 163-647): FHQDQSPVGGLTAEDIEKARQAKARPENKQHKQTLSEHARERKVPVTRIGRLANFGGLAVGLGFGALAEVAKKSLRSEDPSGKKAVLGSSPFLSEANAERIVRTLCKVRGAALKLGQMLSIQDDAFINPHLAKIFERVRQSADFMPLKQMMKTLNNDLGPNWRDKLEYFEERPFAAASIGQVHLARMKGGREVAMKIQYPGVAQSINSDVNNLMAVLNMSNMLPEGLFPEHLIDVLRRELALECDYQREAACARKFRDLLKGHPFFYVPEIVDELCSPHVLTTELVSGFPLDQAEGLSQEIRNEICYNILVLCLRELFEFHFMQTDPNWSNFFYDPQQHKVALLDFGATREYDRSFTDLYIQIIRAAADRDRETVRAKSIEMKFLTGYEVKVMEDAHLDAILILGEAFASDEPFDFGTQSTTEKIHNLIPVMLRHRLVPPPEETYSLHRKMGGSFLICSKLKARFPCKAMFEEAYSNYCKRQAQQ
T2 sequence (P08581 25-1390): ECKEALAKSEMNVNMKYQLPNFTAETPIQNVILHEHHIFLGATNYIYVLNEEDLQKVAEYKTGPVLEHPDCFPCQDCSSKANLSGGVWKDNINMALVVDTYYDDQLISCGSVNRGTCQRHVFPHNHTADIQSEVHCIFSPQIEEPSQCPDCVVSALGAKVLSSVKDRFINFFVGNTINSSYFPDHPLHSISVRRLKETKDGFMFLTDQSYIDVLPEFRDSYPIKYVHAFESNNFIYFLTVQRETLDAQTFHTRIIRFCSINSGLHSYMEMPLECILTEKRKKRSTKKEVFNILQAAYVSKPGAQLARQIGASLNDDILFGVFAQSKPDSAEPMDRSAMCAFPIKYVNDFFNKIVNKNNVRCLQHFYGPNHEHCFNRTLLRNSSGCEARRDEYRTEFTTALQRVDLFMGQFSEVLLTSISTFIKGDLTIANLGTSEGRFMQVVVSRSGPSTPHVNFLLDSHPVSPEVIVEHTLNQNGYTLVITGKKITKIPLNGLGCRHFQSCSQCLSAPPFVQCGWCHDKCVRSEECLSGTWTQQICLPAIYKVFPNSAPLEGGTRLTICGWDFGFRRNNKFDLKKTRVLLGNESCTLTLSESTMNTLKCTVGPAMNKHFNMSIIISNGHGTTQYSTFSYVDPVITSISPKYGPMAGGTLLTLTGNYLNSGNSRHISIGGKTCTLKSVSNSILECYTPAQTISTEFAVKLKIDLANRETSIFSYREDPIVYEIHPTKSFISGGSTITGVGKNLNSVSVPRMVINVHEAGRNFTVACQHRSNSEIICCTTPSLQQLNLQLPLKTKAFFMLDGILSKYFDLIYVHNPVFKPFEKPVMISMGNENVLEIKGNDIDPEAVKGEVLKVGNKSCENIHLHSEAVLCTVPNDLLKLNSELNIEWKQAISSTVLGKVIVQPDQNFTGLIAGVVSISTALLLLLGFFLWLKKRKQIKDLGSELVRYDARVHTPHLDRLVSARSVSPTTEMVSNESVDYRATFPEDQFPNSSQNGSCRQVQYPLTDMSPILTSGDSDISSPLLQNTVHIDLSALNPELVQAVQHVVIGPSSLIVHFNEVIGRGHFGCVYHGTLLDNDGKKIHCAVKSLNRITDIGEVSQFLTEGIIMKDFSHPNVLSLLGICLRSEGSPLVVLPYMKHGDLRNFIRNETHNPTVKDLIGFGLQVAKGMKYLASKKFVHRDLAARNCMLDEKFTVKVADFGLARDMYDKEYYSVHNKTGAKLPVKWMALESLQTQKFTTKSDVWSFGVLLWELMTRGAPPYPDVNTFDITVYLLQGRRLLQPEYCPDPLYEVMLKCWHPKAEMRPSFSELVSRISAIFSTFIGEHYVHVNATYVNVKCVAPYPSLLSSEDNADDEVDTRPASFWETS
T5 sequence (Q8TDX7 whole entry): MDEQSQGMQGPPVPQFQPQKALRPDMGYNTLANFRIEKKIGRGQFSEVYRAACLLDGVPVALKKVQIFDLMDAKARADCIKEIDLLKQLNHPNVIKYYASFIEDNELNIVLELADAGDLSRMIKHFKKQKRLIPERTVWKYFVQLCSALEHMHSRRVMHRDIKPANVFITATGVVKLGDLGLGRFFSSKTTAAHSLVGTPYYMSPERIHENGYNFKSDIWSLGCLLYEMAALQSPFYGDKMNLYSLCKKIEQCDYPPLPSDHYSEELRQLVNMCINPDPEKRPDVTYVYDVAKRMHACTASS
T8 sequence (O94804 whole entry): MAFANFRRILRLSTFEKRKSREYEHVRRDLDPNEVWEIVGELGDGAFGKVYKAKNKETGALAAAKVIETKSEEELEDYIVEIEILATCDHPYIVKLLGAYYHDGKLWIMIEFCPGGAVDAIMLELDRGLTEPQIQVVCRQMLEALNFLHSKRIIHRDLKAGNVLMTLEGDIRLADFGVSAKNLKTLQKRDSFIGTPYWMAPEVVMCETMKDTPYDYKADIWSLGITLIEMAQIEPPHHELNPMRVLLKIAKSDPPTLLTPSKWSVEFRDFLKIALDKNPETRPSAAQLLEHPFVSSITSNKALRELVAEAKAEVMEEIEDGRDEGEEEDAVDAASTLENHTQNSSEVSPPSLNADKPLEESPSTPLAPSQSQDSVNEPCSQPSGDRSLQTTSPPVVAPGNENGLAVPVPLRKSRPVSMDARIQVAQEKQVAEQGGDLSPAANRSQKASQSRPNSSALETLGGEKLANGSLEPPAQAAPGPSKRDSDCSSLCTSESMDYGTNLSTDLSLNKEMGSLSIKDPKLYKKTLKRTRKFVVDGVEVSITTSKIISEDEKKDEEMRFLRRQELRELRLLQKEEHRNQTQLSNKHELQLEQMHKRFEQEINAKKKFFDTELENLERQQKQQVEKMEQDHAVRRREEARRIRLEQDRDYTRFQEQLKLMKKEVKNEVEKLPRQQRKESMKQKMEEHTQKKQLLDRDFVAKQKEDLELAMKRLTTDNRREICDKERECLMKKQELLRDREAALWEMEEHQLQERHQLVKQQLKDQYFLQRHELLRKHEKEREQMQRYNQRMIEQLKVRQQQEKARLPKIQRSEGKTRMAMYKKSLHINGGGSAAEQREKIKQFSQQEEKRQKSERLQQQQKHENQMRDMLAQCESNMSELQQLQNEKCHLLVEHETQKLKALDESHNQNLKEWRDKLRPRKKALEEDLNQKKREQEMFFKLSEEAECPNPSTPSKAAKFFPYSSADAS
T6 sequence (P22607 23-806): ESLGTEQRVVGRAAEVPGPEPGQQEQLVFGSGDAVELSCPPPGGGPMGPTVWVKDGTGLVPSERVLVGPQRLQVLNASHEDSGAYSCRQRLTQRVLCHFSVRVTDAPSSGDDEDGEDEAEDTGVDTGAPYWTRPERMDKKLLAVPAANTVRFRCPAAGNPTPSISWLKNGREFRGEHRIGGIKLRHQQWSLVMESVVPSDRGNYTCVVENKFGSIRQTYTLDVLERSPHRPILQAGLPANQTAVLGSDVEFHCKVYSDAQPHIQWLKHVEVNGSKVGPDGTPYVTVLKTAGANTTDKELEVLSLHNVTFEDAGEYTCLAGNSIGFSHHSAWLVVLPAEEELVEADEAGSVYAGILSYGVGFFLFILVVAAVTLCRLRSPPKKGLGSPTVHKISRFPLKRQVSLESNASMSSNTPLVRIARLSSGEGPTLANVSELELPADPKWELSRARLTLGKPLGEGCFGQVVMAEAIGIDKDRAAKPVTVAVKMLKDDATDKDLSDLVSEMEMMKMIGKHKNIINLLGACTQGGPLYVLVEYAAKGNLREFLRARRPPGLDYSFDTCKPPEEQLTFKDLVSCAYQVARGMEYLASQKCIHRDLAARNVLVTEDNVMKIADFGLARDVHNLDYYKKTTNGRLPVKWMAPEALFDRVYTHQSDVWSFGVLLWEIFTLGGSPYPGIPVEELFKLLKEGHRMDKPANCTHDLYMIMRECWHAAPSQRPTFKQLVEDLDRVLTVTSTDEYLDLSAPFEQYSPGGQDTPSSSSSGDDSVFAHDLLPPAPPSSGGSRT

Row | SMILES | inhibition at 10 µM (panel of 203 kinases [1]) [%] | inhibition at 10 µM (panel of 203 kinases [2]) [%] | inhibition at 10 µM (panel of 203 kinases [3]) [%] | inhibition at 10 µM (panel of 203 kinases [4]) [%] | inhibition at 10 µM (panel of 203 kinases [5]) [%] | inhibition at 10 µM (panel of 203 kinases [6]) [%] | inhibition at 10 µM (panel of 203 kinases [7]) [%] | inhibition at 10 µM (panel of 203 kinases [8]) [%]
1 | Cc1ccc(O)cc1Nc1ccnc(Nc2cccc(C(N)=O)c2)n1 [Compound 3] | 100 | 0 | 0 | 98.2 | 0 | 0 | 100 | 82.6
2 | Cc1ccc(O)cc1N(C)c1ccnc(Nc2cccc(S(N)(=O)=O)c2)n1 [Compound 4] | 100 | 90.2 | 91.1 | 98 | 0 | 65.4 | 100 | 99.6
3 | CN1CCN(c2ccc(Nc3nccc(-c4cnn5ncccc45)n3)cc2C#N)CC1 [Compound 1] | 0 | 0 | 93.7 | 80 | 100 | 0 | 0 | 88.7
4 | Clc1ccc(Nc2ncc(-c3ccccc3)s2)cc1 [Compound 10] | 0 | 0 | 0 | 0 | 0 | 0 | 0 | 0
5 | Nc1ncc2c(-c3ccncc3)c[nH]c2n1 [Compound 11] | 0 | 0 | 0 | 84.2 | 0 | 0 | 0 | 0
6 | Fc1cccc(COc2ccc(Nc3ncnc4c3CN(CCN3CCOCC3)CC4)cc2Cl)c1 [Compound 6] | 0 | 0 | 0 | 0 | 0 | 96.3 | 0 | 0
7 | COc1ccc(Nc2nccc(-c3cnn4ncccc34)n2)cc1 [Compound 2] | 0 | 68.8 | 99.5 | 0 | 100 | 67.6 | 0 | 0
8 | C[C@@H](Oc1cc(-c2cnc3ccccn23)sc1C(N)=O)c1ccccc1Cl [Compound 8] | 0 | 78.4 | 0 | 0 | 0 | 0 | 0 | 100
9 | COc1cc(Nc2nccc(-c3sc(N)nc3-c3cccc(NC(=O)c4c(F)cccc4F)c3)n2)cc(OC)c1OC [Compound 7] | 0 | 99.6 | 100 | 99.3 | 91.3 | 100 | 100 | 100
10 | c1ccc(COc2cccc(-c3ccnc4[nH]ccc34)c2)cc1 [Compound 9] | 0 | 0 | 0 | 0 | 0 | 0 | 0 | 0
